Experimental findings from patent US20180273507A1, “CRYSTAL FORMS OF A M1 RECEPTOR POSITIVE ALLOSTERIC MODULATOR” (Merck Sharp & Dohme Corp., priority 2015, published 2018) are described below.

The nature of the data set: Base catalyzed hydrolysis forced degradation, HPLC monitored. The following applies: basic conditions (0.1 N), 24 hours.

Protocol: The experiment was conducted on a sample stored at room/ambient temperature and another sample maintained at 60° C.

Turning to `Cc1ccc(Cc2cc3c(=O)n([C@H]4CCCC[C@@H]4O)cnc3c3ccccc23)cn1.O=C(O)/C=C/C(=O)O` [3-[(1S,2S)-2-Hydroxycyclohexyl]-6-[(6-methyl-3-pyridinyl)methyl]benzo-[h]quinazolin-4(3H)-one (2E)-2-butenedioate], the “degradation / loss under basic conditions” value (60° C.) turned out to be 1.4% and the “degradation / loss under basic conditions” value (ambient temperature) turned out to be 0.2%.
